# Where “and” joins values, the source holds several entries; their conditions need not be identical. Equal values may be shown once.
# Columns and labels:
# [1] = Solubility of monomer 4 (observation at isolation); format: physicochemical
# Protocol: Synthesis of 3-[Diallyl{3-(diethoxyphosphoryl)propyl}ammonio]propane-1-sulfonate (4) preferably occurs by the following method: under N2 at 70° C., a solution of diethyl 3-(diallylamino)propylphosphonate 2 (15.0 g, 54.5 mmol) and 3 (7.0 g, 57.3 mmol) in CH3CN (30 cm^3) was stirred for 60 h. The residue, after removal of acetonitrile, was crystallized from acetone (30 cm^3) in the presence of small amount of methanol to give white crystals of 4 (19.5 g, 90%). The extremely hygroscopic monomer is insoluble in acetone but soluble in methanol or water. Mp 140-142° C. (closed capillary); (Found: C, 47.9; H, 8.4; N, 3.4; S, 7.8%. C16H32NO6PS requires C, 48.35; H, 8.11; N, 3.52; S, 8.07%); νmax (KBr): 3402, 2985, 2940, 1644, 1479, 1428, 1394, 1213, 1042, 967, 875, 786, 733 and 605 cm^−1; δH (D2O) 1.22 (6H, t, J=7 Hz), 1.86 (2H, m), 1.96 (2H, m), 2.11 (2H, m), 2.84 (2H, t, J=7.5 Hz), 3.23 (2H, apparent t, J=10 Hz), 3.31 (2H, apparent t, J=10 Hz), 3.85 (4H, d, J=7 Hz), 4.04 (4H, m), 5.64 (4H, m), 5.89 (2H, m), (HOD: 4.65); δC (D2O) 15.83 (s, PCH2CH2), 16.47 (d, 2C, Me, ^3J (PC) 4.1 Hz), 18.29 (s, SCH2CH2), 21.45 (d, PCH2, ^1J (PC) 143 Hz), 47.97 (s, SCH2CH2CH2), 57.26 (s, SCH2CH2CH2), 58.32 (d, PCH2CH2CH2, ^3J (PC) 16.4 Hz), 61.72 (2C, ═CH—CH2, s), 64.38 (d, 2C, OCH2CH3, ^2J (PC) 6.2 Hz), 124.40 (2C, s, CH2=CH), 129.80 (2C, s, CH2═CH) (dioxane: 67.40 ppm); δP (202 MHz, D2O): 31.01 (s). DEPT 135 NMR analysis was carried out to assign the ^13C signals.
# [2] = Potentiometric titration for protonation (basicity) constants; format: physicochemical; conditions: 23° C.; for Log K1^o (first protonation), Average / Log K2^o (second protonation), Average / n1 (first protonation), Average / n2 (second protonation), Average: average of runs 1-3, SD in last digit in parentheses
# Protocol: Protonation constants (K1 and K2) of polymer 8 [ZH2^±=] and its corresponding monomer unit 11 [ZH2^±=] were determined by potentiometric titrations which were carried out in atmosphere of N2 in CO2-free water as described elsewhere using a solution (Tables 3 and 4) of PZDA 6 [ZH2^±] or monomer form 11 [ZH2^±=] in 200 cm^3 of salt-free water or 0.1 N NaCl (S. A. Ali, et al., J. Polym. Sc. A: Polym. Chem. 2010, 48, 5693-5703—incorporated herein by reference in its entirety). The Log K1 and Log K2 of the —P(═O)O^= (in 8 or 11) are calculated at each pH value by the Henderson-Hasselbalch eq 2 (Scheme 1) where a is the ratio [ZH^±−]eq/[Z]o and [ZH2^±]eq/[Z]o, respectively. The [ZH^±−]eq and [ZH2^±]eq represent the respective equilibrium concentrations of the first and second protonated species whereas [Z]o describes the initial concentration of repeating units.
# For the determination of the second step protonation constant (log K2) of —P(═O)(OH)O^− (i.e. [ZH^±−]) using the titration of polymer 6 [ZH2^±] with NaOH, [Z]o and [ZH2^±]eq are related by [ZH2^±]eq=[Z]o−COH^−−[H^+]+[OH^−], where COH^− represent the added NaOH concentration. The equilibrium [H^+] and [OH^−] values were calculated from the pH value (W. K. Felty, J. Chem. Educ. 1978, 55, 576; R. Barbucci, et al., Macromolecules 1981, 14, 1203-1209—each incorporated herein by reference in its entirety). The first step protonation constant (log K1) involving the protonation of —P(═O)(O^−)2 (i.e. [Z^±=]) using volume of the titrant after deducting the equivalent volume from the total volume. In this case, α represents the ratio [ZH^±−]eq/[Z]o whereby [ZH^±−]eq equals [Z]o−COH^−−[H^+]+[OH^−]. For the titration of 11 [Z^±=] with HCl, the protonated species' concentration is given by: [ZHi=1,2]eq═CH^+−[H^+]+[OH^−].
# Eq. 3 (Scheme 1) describes the apparent basicity constants of —P(═O)(O^−)2 where log K^o=pH at α=0.5 and n=1 in the case of sharp basicity constants.
# The ‘n’ and log K^o as the respective slope and intercept were determined from the linear regression fit of pH vs. log [(1−α)/α)]. Protonation at the same time of the three basic sites: —PO3^=(log K1≈+8), —PO3H^− (log K2≈+3) and —SO3^−(log K3≈−2.1) (J. P. Guthrie, Can. J. Chem. 1978, 56, 2342-2354—incorporated herein by reference in its entirety) is not likely due to differences of their basicity constants by about 5 orders of magnitude (vide infra). Note that basicity constant log K of any base B is the pKa of its conjugate acid BH^+.
# [3] = 0.1M NaCl, single runs (polymer runs 1, 2 in the presence of 1.5 mL of 0.1222M HCl)
SMILES,solubility ([1]; acetone),solubility ([1]; methanol),solubility ([1]; water),"Log K1^o (first protonation), Average ([2]; 0.1M NaCl)","Log K2^o (second protonation), Average ([2]; 0.1M NaCl)","n1 (first protonation), Average ([2]; 0.1M NaCl)","n2 (second protonation), Average ([2]; 0.1M NaCl)","Log K1^o (first protonation) ([2]; 0.1M NaCl, single runs)","n1 (first protonation) ([2]; 0.1M NaCl, single runs)","Log K2^o (second protonation) [2, 3]","n2 (second protonation) [2, 3]","Log K1^o (first protonation), Average ([2]; Salt-Free water)","Log K2^o (second protonation), Average ([2]; Salt-Free water)","n1 (first protonation), Average ([2]; Salt-Free water)","n2 (second protonation), Average ([2]; Salt-Free water)","Log K1^o (first protonation) ([2]; Salt-Free water, single runs)","Log K2^o (second protonation) ([2]; Salt-Free water, single runs)","n1 (first protonation) ([2]; Salt-Free water, single runs)","n2 (second protonation) ([2]; Salt-Free water, single runs)"
"C=CC[N+](CC=C)(CCCP(=O)(OCC)OCC)CCCS(=O)(=O)[O-] [Monomer 4, 3-[diallyl{3-(diethoxyphosphoryl)propyl}ammonio]propane-1-sulfonate]",insoluble,soluble,soluble,,,,,,,,,,,,,,,,
C=CC[N+](CC=C)(CCCP(=O)([O-])[O-])CCCS(=O)(=O)[O-].[Na+].[Na+] [Monomer 11],,,,7.12 (1),2.90 (5),1.03 (1),1.01 (4),7.12 and 7.11 and 7.13,1.03 and 1.04,2.91 and 2.84 and 2.94,0.993 and 1.06 and 0.990,7.53,2.74 (2),1.04 (1),1.02 (3),7.50 and 7.54 and 7.55,2.75 and 2.72,1.04 and 1.05,1.02 and 0.984 and 1.05

# — patent US9309336B2, “Synthesis and antiscalant behavior of a novel polyzwitterionic acid” (King Fahd University of Petroleum and Minerals, priority 2013, dated 2016)
